Laboratory results as given in patent publication US7579356B2, “Thia-tetraazaacenaphthylene kinase inhibitors” (Janssen Pharmaceutica NV, priority 2005, dated 2009).
pIC50: −log10 of the molar value. Values joined by “and” are separate entries in the source; they are usually repeats but may differ in a detail not shown here. Identical values can stand only once.

Tests used:
[1] = tested on: Human epidermoid A431 carcinoma; assay: In Vivo Models - Inhibition of Tumor Growth, A431; conditions: oral daily for 30 days, athymic mice
Description: (§1) In Vivo Models—Inhibition of Tumor Growth
(§2) The ability of test compounds to inhibit unregulated growth of human tumor cells in vivo was evaluated by implanting human tumor cells into the hindflank of athymic mice, administering a test compound and then quantifying any change in tumor size.
(§3) Human epidermoid A431 carcinoma, N87 cells and BT474 cells were implanted subcutaneously into the hindflank of female athymic mice (Charles River) and allowed to grow for 6-10 days. After a measurable tumor was established (as determined by baseline caliper measurement), the animal was administered an oral dose of the test compound daily for a period of 30 days. Tumor size was measured every five days and the degree of inhibition was determined by comparing drug-treated animals to vehicle-treated animals.
(§4) Variations of this method are intended to include intraperitoneal injection or intravenous infusion as the route of administration and administration of the test compound either alone or in a combination therapy.
(§5) The inhibition of tumor growth values are shown in Table 8 at various test concentrations, as indicated. For compounds with multiple values at one test concentration, each value represents a separate assay result.

[2] = target: T1, EGFR (Homo sapiens, UniProt P00533); assay: EGFR Kinase Assay; type: biochemical; conditions: GST-EGFR, ATP 5 μM
T1 construct: The intracellular portion of EGFR started at nucleotide 2189 (corresponding to amino acid 667) and ended at the termination codon; made in house; host or cells: Sf9 insect cells (baculovirus)
How it was run: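 GST-fused human EGFR intracellular domain (from aa 667), Sf9-expressed, phosphorylated biotinylated polyGluTyr with 5 μM ATP plus γ-33P ATP in Tris pH 8.0, MgCl2, vanadate, 1 mM DTT, 1 h at 30 °C. Streptavidin Flashplate scintillation read; triplicate 16-point half-log series from 200 uM; IC50 from % inhibition vs log concentration, else % inhibition at 2 μM.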

[3] = target: T2, HER-2 (Homo sapiens, UniProt P04626); assay: HER-2 Kinase Assay; type: biochemical; conditions: for pIC50: value in parentheses; for inhibition at 1 µM: test concentration of 1 μM
T2 construct: His6 with thrombin site (N); purchased Proqinase (Freiburg, Germany)
How it was run: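 GST/HIS6-tagged HER-2 aa 679–1255 kinase with biotinylated polyGluTyr (1.5 ng/μL), 1 μM ATP plus γ-33P-ATP, Mg2+/Mn2+, DTT, Hepes pH 7.5; 1 h at 30 °C. Substrate phosphorylation captured on streptavidin scintillation plates after EDTA/PBS washes; values are % inhibition at 1 μM or IC50.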

[4] = tested on: BT474 cells; assay: In Vivo Models - Inhibition of Tumor Growth, BT474; conditions: 100 mg/kg, oral daily for 30 days, athymic mice
Description: as §1, §2, §3, §4, §5

[5] = tested on: N87 cells; assay: In Vivo Models - Inhibition of Tumor Growth, N87; conditions: Mus musculus, po, 720 h, oral daily for 30 days, athymic mice, read-out: percent inhibition N87
Description: as §1, §2, §3, §4, §5

[6] = target: T3, HER-4 (Homo sapiens, UniProt Q15303); assay: HER-4 Kinase Assay; type: biochemical
T3 construct: His6 with thrombin site (N); purchased Proqinase (Freiburg, Germany)
Description: The HER-4 kinase used was purified at Proqinase (Freiburg, Germany) from a construct that consisted of a fusion of GST (Glutathione-S-Transferase), HIS6-Thrombin and the nucleotides encoding amino acids 676 to 1307 of HER-4 (Accession NM 005235).
A mixture of a 10× kinase reaction buffer (600 mM Hepes at pH 7.5, 30 mM Magnesium Chloride, 0.03 mM Sodium Vanadate and 500 μg/mL PEG 20,000), DTT (1.2 mM final from a 10 mM) stock), ATP (1 μM from a 10 mM stock), biotinylated polyGluTyr (1.5 ng/μL final from stock of 1 μg/μL) prepared by Upstate Biotechnologies, Lake Placid, N.Y.), Manganese Chloride (3 mM final from a 1 M stock), γ-^33P-ATP (10 μCl/mL stock) and water (70 μL/well) was added to each well of a Streptavidin Flashplate (Cat. # SMP103, NEN, Boston, Mass.).
Test compound stock (1 μL) was added to the appropriate wells. Diluted GST HER-4 kinase (6.7 ng/μL diluted into 50 mM Tris-HCl at pH 8.0 and 0.1% bovine serum albumin) (30 μL) was added (total volume of 200 ng/well) to initiate the reactions.
The reaction plates were incubated at 30° C. for 1 hr. The reaction was terminated by aspirating the reaction mixture from the plate wells and washing the wells three times with a 1×PBS stop buffer (300 μL) and 100 mM EDTA. After the final wash, the same stop buffer (200 μL) was again added to the wells. The plates were then sealed and read on the TopCount scintillation counter.
For a series of test concentrations, the IC50 was derived by graphing percent inhibition against the log of the concentrations tested for a given compound.

[7] = tested on: SKBR3 breast carcinoma; assay: Cell Proliferation Inhibition Assay, SKBR3 (14C-thymidine); type: cell-based; conditions: Homo sapiens, SK-BR-3, C14 method
Source text: (§6) Cell Proliferation Inhibition Assay
(§7) The ability of a test compound to inhibit unregulated cell proliferation may be determined by measuring incorporation of ^14C-labelled thymidine into newly synthesized DNA within cell lines derived from carcinomas originating from several tissues. Accordingly, the effect of a test compound on proliferation of cells with a variety of phenotypes may be determined.
(§8) Carcinoma cell lines used include the HeLa cervical adenocarcinoma from the American Type Culture Collection (ATCC Cat. #CCL2), A375 malignant melanoma (ATCC Cat. #CRL-1619), HCT-116 colon carcinoma (ATCC Cat. #CCL-247), SKBR3 breast carcinoma (ATCC Cat. #HTB-30) and BT474 breast carcinoma (ATCC Cat. #HTB-20).
(§9) The carcinoma cells were trypsinized and counted. The cells (3000-8000 count) were added to each well of a 96-well CytoStar tissue culture treated scintillating microplate (Amersham #RPNQ0160) in complete medium (100 μL) and the plate was then incubated in complete medium for 24 hrs at 37° C. in an inert atmosphere containing 5% CO2.
(§10) Test compound (1 μL) in 100% DMSO was added to the plate test-wells with DMSO only added to control-wells. The plate was incubated in complete medium for a second 24 hr period at 37° C. in an atmosphere containing 5% CO2.
(§11) An aliquot of a solution of Methyl ^14C-thymidine (56 mC/mmol) (NEN #NEC568 or AMersham #CFA532) and complete medium (20 uL to provide 0.2 μCl/well) was then added to each well and the plate was incubated for a third 24 hr period at 37° C. in an atmosphere containing 5% CO2.
(§12) The plate contents were then discarded, the plate washed twice with PBS (200 μL) and then PBS (200 μL) was added to each well. The plate was sealed and the degree of methyl ^14C-thymidine incorporation was quantified on a Packard Top Count.
(§13) Cell proliferation of the Hela cell line was measured using the ATP-Lite method as described in the ATP Lite Kit (Perkin-Elmer Kit Number 6106941) or the C^14 method as described above. Cell proliferation of the other cell lines was measured using the C^14 method.

[8] = tested on: HeLa cervical adenocarcinoma; assay: Cell Proliferation Inhibition Assay, Hela (ATP Lite); type: cell-based; conditions: Homo sapiens, ATP-Lite method
Source text: as §6, §7, §8, §9, §10, §13

[9] = tested on: BT474 breast carcinoma; assay: Cell Proliferation Inhibition Assay, BT474 (14C-thymidine); type: cell-based; conditions: Homo sapiens, BT-474, C14 method
Source text: as §6, §7, §8, §9, §10, §11, §12, §13

T3 sequence (Q15303 676-1307): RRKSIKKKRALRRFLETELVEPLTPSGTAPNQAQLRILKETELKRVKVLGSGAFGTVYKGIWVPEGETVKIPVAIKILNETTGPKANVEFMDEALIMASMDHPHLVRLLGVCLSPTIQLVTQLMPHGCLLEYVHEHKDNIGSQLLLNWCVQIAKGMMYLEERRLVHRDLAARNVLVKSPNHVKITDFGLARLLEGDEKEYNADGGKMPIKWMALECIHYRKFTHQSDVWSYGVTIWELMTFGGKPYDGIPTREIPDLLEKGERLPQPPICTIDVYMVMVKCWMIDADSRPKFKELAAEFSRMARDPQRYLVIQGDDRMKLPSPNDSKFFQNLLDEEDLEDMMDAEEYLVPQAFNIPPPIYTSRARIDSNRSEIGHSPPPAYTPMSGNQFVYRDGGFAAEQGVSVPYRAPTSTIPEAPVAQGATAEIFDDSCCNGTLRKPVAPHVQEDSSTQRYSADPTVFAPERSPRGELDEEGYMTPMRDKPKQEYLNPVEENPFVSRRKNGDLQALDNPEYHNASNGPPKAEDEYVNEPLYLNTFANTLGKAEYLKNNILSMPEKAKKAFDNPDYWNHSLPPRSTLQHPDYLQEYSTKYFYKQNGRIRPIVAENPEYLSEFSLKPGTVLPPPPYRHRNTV
T2 sequence (P04626 679-1255): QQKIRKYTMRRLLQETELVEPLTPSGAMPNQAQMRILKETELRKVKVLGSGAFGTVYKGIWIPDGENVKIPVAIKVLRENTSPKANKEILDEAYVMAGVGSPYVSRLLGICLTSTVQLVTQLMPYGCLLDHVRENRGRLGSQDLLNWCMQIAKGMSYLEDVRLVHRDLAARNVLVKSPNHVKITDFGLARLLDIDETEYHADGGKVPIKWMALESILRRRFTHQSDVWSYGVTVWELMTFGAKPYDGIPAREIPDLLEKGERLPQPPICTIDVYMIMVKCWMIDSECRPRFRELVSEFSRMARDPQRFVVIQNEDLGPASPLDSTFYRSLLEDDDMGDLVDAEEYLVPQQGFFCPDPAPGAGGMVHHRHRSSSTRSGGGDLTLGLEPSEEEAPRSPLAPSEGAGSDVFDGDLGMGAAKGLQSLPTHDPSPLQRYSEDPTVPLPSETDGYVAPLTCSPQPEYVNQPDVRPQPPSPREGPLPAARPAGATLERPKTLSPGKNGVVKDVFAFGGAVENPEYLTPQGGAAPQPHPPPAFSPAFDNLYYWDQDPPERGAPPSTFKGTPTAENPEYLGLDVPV
T1 sequence (P00533 669-1210 limits assumed): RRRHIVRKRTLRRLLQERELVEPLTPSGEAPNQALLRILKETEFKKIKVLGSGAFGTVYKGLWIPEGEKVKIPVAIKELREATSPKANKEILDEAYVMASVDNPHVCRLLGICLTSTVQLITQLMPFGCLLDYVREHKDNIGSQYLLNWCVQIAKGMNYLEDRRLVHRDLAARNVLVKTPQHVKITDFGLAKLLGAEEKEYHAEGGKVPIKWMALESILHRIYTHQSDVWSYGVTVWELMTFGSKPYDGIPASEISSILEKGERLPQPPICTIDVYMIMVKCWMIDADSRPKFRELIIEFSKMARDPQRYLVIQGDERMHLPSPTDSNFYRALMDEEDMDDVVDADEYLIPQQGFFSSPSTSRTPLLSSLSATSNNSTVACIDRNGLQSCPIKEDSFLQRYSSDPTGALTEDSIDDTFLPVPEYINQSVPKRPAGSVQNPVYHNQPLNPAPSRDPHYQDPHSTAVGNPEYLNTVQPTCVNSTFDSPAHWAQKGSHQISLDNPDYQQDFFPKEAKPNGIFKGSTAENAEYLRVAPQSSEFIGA

Row | SMILES | pIC50 [2] | pIC50 [3] | inhibition in vivo at 100 mg/kg [5] | pIC50 [6] | further results
1 | COC1CCN(Cc2ccc(NC(=O)c3sc4ncnc5c4c3NC(=O)N5c3ccc(Oc4ccccc4)cc3)cc2)CC1 [Cpd 261, 4-oxo-5-(4-phenoxy-phenyl)-4,5-dihydro-3H-1-thia-3,5,6,8-tetraaza-acenaphthylene-2-carboxylic acid [4-(4-methoxy-piperidin-1-ylmethyl)-phenyl]-amide] | 7.74 | 7.96 | 75.4% |  | percent inhibition A431 ([1]; 10 mg/kg): 44%; percent inhibition A431 ([1]; 30 mg/kg): 54.1%; percent inhibition A431 ([1]; 100 mg/kg): 86.1% and 80.1%; percent inhibition BT474 [4]: 98%; inhibition in vivo at 25 mg/kg ([5]; 25 mg/kg): 69.6%; inhibition in vivo at 50 mg/kg ([5]; 50 mg/kg): 71%
2 | COc1cc(NC(=O)c2sc3ncnc4c3c2NC(=O)N4c2ccc(Oc3ccccc3)cc2)ccc1CN1CCOCC1 [Cpd 176, 4-oxo-5-(4-phenoxy-phenyl)-4,5-dihydro-3H-1-thia-3,5,6,8-tetraaza-acenaphthylene-2-carboxylic acid (3-methoxy-4-morpholin-4-ylmethyl-phenyl)-amide] | 7.66 | 7.92 |  | 7.33 | 
3 | O=C(Nc1ccc(CN2CCOCC2)cc1)c1sc2ncnc3c2c1NC(=O)N3c1ccc(OCc2ccco2)c(Cl)c1 [Cpd 245, 5-[3-chloro-4-(furan-2-ylmethoxy)-phenyl]-4-oxo-4,5-dihydro-3H-1-thia-3,5,6,8-tetraaza-acenaphthylene-2-carboxylic acid (4-morpholin-4-ylmethyl-phenyl)-amide] | 7.62 | 7.32 | 48.7% | 6.64 | 
4 | O=C(Nc1ccc(CN2CCC(O)CC2)cc1)c1sc2ncnc3c2c1NC(=O)N3c1ccc(Oc2ccccc2)cc1 [Cpd 233, 4-oxo-5-(4-phenoxy-phenyl)-4,5-dihydro-3H-1-thia-3,5,6,8-tetraaza-acenaphthylene-2-carboxylic acid [4-(4-hydroxy-piperidin-1-ylmethyl)-phenyl]-amide] | 7.77 | 8.05 | 38.3% | 8.05 | percent inhibition A431 ([1]; 100 mg/kg): 2.2%
5 | O=C(Nc1ccc(CN2CCCCC2)cc1)c1sc2ncnc3c2c1NC(=O)N3c1ccc(F)c(Cl)c1 [Cpd 3, 5-(3-chloro-4-fluoro-phenyl)-4-oxo-4,5-dihydro-3H-1-thia-3,5,6,8-tetraaza-acenaphthylene-2-carboxylic acid (4-piperidin-1-ylmethyl-phenyl)-amide] | 8.05 |  |  |  | pIC50 [7]: 5.01; pIC50 [8]: 4.37; pIC50 [9]: 5.02; inhibition at 1 µM [3]: 59%
6 | COc1cc(NC(=O)c2sc3ncnc4c3c2NC(=O)N4c2cccc(Br)c2)ccc1OCCN1CCCCC1 [Cpd 63, 5-(3-bromo-phenyl)-4-oxo-4,5-dihydro-3H-1-thia-3,5,6,8-tetraaza-acenaphthylene-2-carboxylic acid [3-methoxy-4-(2-piperidin-1-yl-ethoxy)-phenyl]-amide] | 6.98 |  |  |  | pIC50 [7]: 4.57; pIC50 [8]: 4.23; pIC50 [9]: ≤ 5.00; inhibition at 1 µM [3]: 45%
7 | O=C(Nc1ccc(CN2CCCC(F)C2)cc1)c1sc2ncnc3c2c1NC(=O)N3c1ccc(Oc2ccccc2)cc1 (centres unmarked) [Cpd 234, 4-oxo-5-(4-phenoxy-phenyl)-4,5-dihydro-3H-1-thia-3,5,6,8-tetraaza-acenaphthylene-2-carboxylic acid [4-(3-fluoro-piperidin-1-ylmethyl)-phenyl]-amide] | 7.28 | 7.47 |  | 7.23 | 
8 | O=C(Nc1ccc(CN2CCC(F)CC2)cc1)c1sc2ncnc3c2c1NC(=O)N3c1ccc(Oc2ccccc2)cc1 [Cpd 250, 4-oxo-5-(4-phenoxy-phenyl)-4,5-dihydro-3H-1-thia-3,5,6,8-tetraaza-acenaphthylene-2-carboxylic acid [4-(4-fluoro-piperidin-1-ylmethyl)-phenyl]-amide] | 7.43 | 7.59 | 68.9% | 7.48 | 
